This passage reports IC50 results from US8987249B2, “Substituted 2-Aza-bicyclo[2.2.1]heptane-3-carboxylic acid (benzyl-cyano-methyl)-amides inhibitors of Cathepsin C” (Boehringer Ingelheim International GmbH, priority 2013, dated 2015).

pIC50: −log10 of the molar value.

In the test the target is recombinant human DPPI (Cathepsin C) (Homo sapiens (Human), UniProt P53634). The test can be described thus: Inhibition of human DPPI (Cathepsin C). Format: biochemical. The conditions noted are these: substrate Gly-Arg-AMC. The protocol: Inhibition of Human DPPI (Cathepsin C)
Sequence of recombinant human DPPI (Cathepsin C) (P53634 231-394): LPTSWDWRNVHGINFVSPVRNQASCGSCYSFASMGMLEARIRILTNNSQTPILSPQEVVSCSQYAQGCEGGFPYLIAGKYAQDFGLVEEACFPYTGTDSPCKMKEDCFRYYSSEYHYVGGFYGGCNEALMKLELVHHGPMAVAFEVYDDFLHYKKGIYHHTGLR
Sequence of recombinant human DPPI (Cathepsin C) (P53634 395-463): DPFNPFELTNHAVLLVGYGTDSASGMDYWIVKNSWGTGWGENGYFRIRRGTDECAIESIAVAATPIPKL
Sequence of recombinant human DPPI (Cathepsin C) (P53634 25-134): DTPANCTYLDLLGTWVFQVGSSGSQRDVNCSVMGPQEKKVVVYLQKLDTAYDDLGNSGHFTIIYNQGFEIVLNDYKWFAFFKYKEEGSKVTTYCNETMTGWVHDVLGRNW
Bovine serum albumin (BSA; Prod. No. A3059) and Dithiothreitol (DTT; Prod. No D0632) were from Sigma. […] The DPP1 inhibitor Gly-Phe-DMK was purchased from MP Biomedicals (Prod.-No. 03DK00625). The recombinant human DPPI was purchased from Prozymex. All other materials were of highest grade commercially available.
The following buffers were used: MES buffer: 25 mM MES, 50 mM NaCl, 5 mM DTT, adjusted to pH 6.0, containing 0.1% BSA; TAGZyme Buffer: 20 mM NaH2PO4, 150 mM NaCl adjusted to pH 6.0 with HCl
Then, 5 μL of substrate in MES buffer (final concentration 50 μM) were added. The microtiter plates were then incubated at room temperature for 30 min. Then, the reaction was stopped by adding 10 μL of Gly-Phe-DMK in MES-buffer (final concentration 1 μM).
The analysis of the data was performed by calculating the percentage of fluorescence in the presence of test compound in comparison to the fluorescence of the vehicle control after subtracting the background fluorescence using the following formula: (RFU(sample)−RFU(background))*100/(RFU(control)−RFU(background))
Data from these calculations were used to generate IC50 values for inhibition of DPPI, respectively.
For orientation: pIC50 means −log10 of the IC50, conventionally taken in molar units. Regarding `N#C[C@H](Cc1ccc(-c2ccc3c(c2)CC(=O)N3C2CCNCC2)cc1F)NC(=O)[C@H]1N[C@@H]2CC[C@H]1C2` [Example 334], the negative-log IC50 (pIC50) is 7.66.

For `COC(=O)c1cccc2c1[nH]c(=O)c1cc(CC(C#N)NC(=O)[C@H]3N[C@@H]4CC[C@H]3C4)ccc12` (stereo partly shown) [Example 311], the pIC50 is 8.00.

`N#CC(Cc1ccc2oc3ccccc3c2c1)NC(=O)[C@H]1N[C@@H]2CC[C@H]1C2` (stereo partly shown) [Example 212]: the negative logarithm of the IC50 (pIC50) is 6.53.

Take `CCCNC(=O)c1cc(-c2ccc(C[C@@H](C#N)NC(=O)[C@H]3N[C@@H]4CC[C@H]3C4)c(F)c2)cs1` [Example 164]: the pIC50 was 8.64.

On to `Cn1c(=O)c2cc(CC(C#N)NC(=O)[C@H]3N[C@@H]4CC[C@H]3C4)ccc2c2ccccc21` (stereo partly shown) [Example 206], for which the negative-log IC50 (pIC50) is 7.58.

`N#CC(Cc1ccc2c(c1)[nH]c(=O)c1ccccc12)NC(=O)[C@H]1N[C@@H]2CC[C@H]1C2` (stereo partly drawn) [Example 123, (1S,2S,4R)—N-[1-cyano-2-(6-oxo-5H-phenanthridin-3-yl)ethyl]-3-azabicyclo[2.2.1]heptane-2-carboxamide]: the pIC50 is 6.73.

Take `N#Cc1cc2c(cc1C(F)(F)F)[nH]c(=O)c1cc(CC(C#N)NC(=O)[C@H]3N[C@@H]4CC[C@H]3C4)ccc12` (stereo partly shown) [Example 302]: the pIC50 is 8.33.

In the case of `N#C[C@H](Cc1ccc(N2CCC3COCC3C2)cc1F)NC(=O)[C@H]1N[C@@H]2CC[C@H]1C2` (stereo partly shown) [Example 352], the negative-log IC50 (pIC50) was 7.76.

Regarding `CN1Cc2ccc(-c3ccc(C[C@@H](C#N)NC(=O)[C@H]4N[C@@H]5CC[C@H]4C5)c(F)c3)cc2C1` [Example 1, (1S,2S,4R)—N-[(1S)-1-cyano-2-[2-fluoro-4-(2-methylisoindolin-5-yl)phenyl]ethyl]-3-azabicyclo[2.2.1]heptane-2-carboxamide], the pIC50 is 8.07.

Regarding `CC(=O)Nc1ccc(-c2ccc(C[C@@H](C#N)NC(=O)[C@H]3N[C@H]4C[C@@H]3[C@@H]3C[C@@H]34)c(F)c2)cc1` [Example 131], the pIC50 was 6.86.

As to `N#C[C@H](Cc1ccc(-c2ccc(S(=O)(=O)N3CCOCC3)cc2)cc1F)NC(=O)[C@H]1N[C@@H]2CC[C@H]1C2` [Example 217], the pIC50 was 8.43.

In the case of `N#C[C@H](Cc1ccc(N2CCCCC2)cc1F)NC(=O)[C@H]1N[C@@H]2CC[C@H]1C2` [Example 197], the pIC50 was 7.81.

With `N#C[C@H](Cc1ccc(-c2csc(C(=O)N3CCCC3)c2)cc1F)NC(=O)[C@H]1N[C@@H]2CC[C@H]1C2` [Example 165], the pIC50 is 8.57.

For the compound `N#C[C@H](Cc1ccc(N2CCC3CN(C4CCOC4)CC32)cc1F)NC(=O)[C@H]1N[C@@H]2CC[C@H]1C2` (stereo partly shown) [Example 354], the pIC50 is 8.17.

Regarding `CN1CCO[C@@H]2CN(c3ccc(C[C@@H](C#N)NC(=O)[C@H]4N[C@@H]5CC[C@H]4C5)c(F)c3)C[C@@H]21` [Example 355], the negative logarithm of the IC50 (pIC50) is 7.65.

Consider `Cc1cnn(C)c1-c1ccc(C[C@@H](C#N)NC(=O)[C@H]2N[C@@H]3CC[C@H]2C3)c(F)c1` [Example 126], for which the negative logarithm of the IC50 (pIC50) is 6.56.

As for `Cn1cc2ccc(-c3ccc(C[C@@H](C#N)NC(=O)[C@H]4N[C@H]5C[C@@H]4[C@@H]4C[C@@H]45)c(F)c3)cc2n1` [Example 135], the pIC50 is 6.54.

Take `CC1(C)CCN(c2ccc(C[C@@H](C#N)NC(=O)[C@H]3N[C@@H]4CC[C@H]3C4)c(F)c2)CC1` [Example 195]: the pIC50 was 7.83.

Regarding `CCc1cc(-c2ccc(C[C@@H](C#N)NC(=O)[C@H]3N[C@@H]4CC[C@H]3C4)c(F)c2)nn1CC(C)C` [Example 273], the pIC50 was 7.54.

On to `N#C[C@H](Cc1ccc(-c2ccc(C(=O)N3CCCCC3)cc2)cc1F)NC(=O)[C@H]1N[C@@H]2CC[C@H]1C2` [Example 210], for which the negative logarithm of the IC50 (pIC50) was 7.31.

For the compound `CS(=O)(=Nc1cccc(-c2ccc(C[C@@H](C#N)NC(=O)[C@H]3N[C@@H]4CC[C@H]3C4)c(F)c2)c1)C1CCOCC1` (stereo partly shown) [Example 264], the pIC50 is 7.77.

On to `CC(C)OCc1cn(-c2ccc(C[C@@H](C#N)NC(=O)[C@H]3N[C@@H]4CC[C@H]3C4)c(F)c2)nn1` [Example 124], for which the negative-log IC50 (pIC50) was 6.73.

For the compound `CN(C)C(=O)c1ccc(-c2ccc(C[C@@H](C#N)NC(=O)[C@H]3N[C@@H]4CC[C@H]3C4)c(F)c2)cc1` [Example 211], the negative-log IC50 (pIC50) is 7.21.

Regarding `CS(=O)(=O)c1cc(-c2ccc(C[C@@H](C#N)NC(=O)[C@H]3N[C@H]4CC[C@@H]3C4)c(F)c2)ccc1C#N` [Example 214], the pIC50 is 6.09.

In the case of `COc1ccc2[nH]c(=O)c3cc(CC(C#N)NC(=O)[C@H]4N[C@@H]5CC[C@H]4C5)ccc3c2c1` (stereo partly shown) [Example 312], the pIC50 is 7.96.

As to `N#C[C@H](Cc1ccc2ccccc2c1)NC(=O)[C@H]1N[C@@H]2CC[C@H]1C2` [Example 220], the pIC50 is 6.60.

In the case of `N#C[C@H](Cc1ccc(C2CCN(C3CCOC3)CC2)cc1F)NC(=O)[C@H]1N[C@@H]2CC[C@H]1C2` (stereo partly shown) [Example 337], the pIC50 was 7.55.

Turning to `CN1CCO[C@H]2CN(c3ccc(C[C@@H](C#N)NC(=O)[C@H]4N[C@@H]5CC[C@H]4C5)c(F)c3)CC[C@@H]21` [Example 357], the negative-log IC50 (pIC50) was 7.47.

In the case of `N#C[C@H](Cc1ccc(-c2cnc3cccnn23)cc1F)NC(=O)[C@H]1N[C@@H]2CC[C@H]1C2` [Example 174], the pIC50 was 8.25.

With `CCOc1nc(-c2ccc(C[C@@H](C#N)NC(=O)[C@H]3N[C@@H]4CC[C@H]3C4)c(F)c2)cs1` [Example 172], the pIC50 was 8.28.

Consider `N#C[C@H](Cc1ccc(-c2ccc(C(=O)N3CCOCC3)cc2)cc1F)NC(=O)[C@H]1N[C@@H]2CC[C@H]1C2` [Example 202], for which the negative logarithm of the IC50 (pIC50) was 7.64.

On to `N#CC(Cc1ccc2c(c1)[nH]c(=O)c1cc(F)ccc12)NC(=O)[C@H]1N[C@@H]2CC[C@H]1C2` (stereo partly shown) [Example 207], for which the pIC50 was 7.54.

As for `Cc1cn(C)c(-c2ccc(C[C@@H](C#N)NC(=O)[C@H]3N[C@@H]4CC[C@H]3C4)c(F)c2)n1` [Example 208], the pIC50 was 7.53.

Turning to `CC(C)N1CCN(C(=O)c2cc(-c3ccc(C[C@@H](C#N)NC(=O)[C@H]4N[C@@H]5CC[C@H]4C5)c(F)c3)cs2)CC1` [Example 227], the pIC50 was 9.00.

In the case of `CN(C)C(=O)c1cnn(-c2ccc(C[C@@H](C#N)NC(=O)[C@H]3N[C@@H]4CC[C@H]3C4)c(F)c2)c1` [Example 286], the pIC50 was 7.41.

With `N#C[C@H](Cc1cc(-c2cccc(O)n2)ccc1F)NC(=O)[C@H]1N[C@@H]2CC[C@H]1C2` [Example 317], the pIC50 is 7.28.

For `N#C[C@H](Cc1ccc(-c2csc(C(=O)N3CCN(CC(F)(F)F)CC3)c2)cc1F)NC(=O)[C@H]1N[C@@H]2CC[C@H]1C2` [Example 232], the pIC50 was 8.66.

As for `N#CC(Cc1cccc2[nH]c(=O)c3ccccc3c12)NC(=O)[C@H]1N[C@@H]2CC[C@H]1C2` (stereo partly drawn) [Example 128, (1S,2S,4R)—N-[1-cyano-2-(6-oxo-5H-phenanthridin-1-yl)ethyl]-3-azabicyclo[2.2.1]heptane-2-carboxamide], the negative-log IC50 (pIC50) was 5.62.

For the compound `N#C[C@H](Cc1ccc(OCc2ccccc2)cc1F)NC(=O)[C@H]1N[C@@H]2CC[C@H]1C2` [Example 290], the pIC50 is 7.69.

For the compound `Cn1ncc2cc(-c3ccc(C[C@@H](C#N)NC(=O)[C@H]4N[C@H]5C[C@@H]4[C@@H]4C[C@@H]45)c(F)c3)ccc21` [Example 137], the pIC50 was 7.22.

Regarding `COC(=O)c1ccc(-c2ccc(C[C@@H](C#N)NC(=O)[C@H]3N[C@@H]4CC[C@H]3C4)c(F)c2)o1` [Example 175], the pIC50 was 8.20.

On to `N#C[C@H](Cc1ccc(-c2cc[nH]c(=O)c2)cc1F)NC(=O)[C@H]1N[C@@H]2CC[C@H]1C2` [Example 257], for which the negative-log IC50 (pIC50) is 7.40.

With `N#CC(Cc1ccc2c(c1)c(=O)[nH]c1ccc(Cl)cc12)NC(=O)[C@H]1N[C@@H]2CC[C@H]1C2` (stereo partly shown) [Example 304], the pIC50 is 8.22.

For `CN1C(=O)Cc2ccc(-c3ccc(CC(C#N)NC(=O)[C@H]4N[C@@H]5CC[C@H]4C5)c(OCc4ccccc4)c3)cc21` (stereo partly shown) [Example 122], the negative logarithm of the IC50 (pIC50) was 6.74.

`COC(=O)c1ccc2[nH]c(=O)c3cc(CC(C#N)NC(=O)[C@H]4N[C@@H]5CC[C@H]4C5)ccc3c2c1` (stereo partly shown) [Example 299]: the pIC50 is 8.49.

For the compound `CC(C)N1CCC(c2ccc(C[C@@H](C#N)NC(=O)[C@H]3N[C@@H]4CC[C@H]3C4)c(F)c2)CC1` [Example 280], the pIC50 is 7.67.

As for `N#C[C@H](Cc1ccc(N2C3CCC2CN(C2CCOC2)C3)cc1F)NC(=O)[C@H]1N[C@@H]2CC[C@H]1C2` (stereo partly shown) [Example 329], the pIC50 was 8.15.

`Cn1c(=O)oc2ccc(-c3ccc(C[C@@H](C#N)NC(=O)[C@H]4N[C@H]5C[C@@H]4[C@@H]4C[C@@H]45)c(F)c3)cc21` [Example 129]: the negative logarithm of the IC50 (pIC50) is 7.08.

In the case of `N#CC(Cc1cccc2[nH]c(=O)c3cc(F)ccc3c12)NC(=O)[C@H]1N[C@@H]2CC[C@H]1C2` (stereo partly shown) [Example 215], the pIC50 is 6.05.

On to `CN1CCN(C(=O)c2cc(-c3ccc(C[C@@H](C#N)NC(=O)[C@H]4N[C@@H]5CC[C@H]4C5)c(F)c3)cs2)CC1` [Example 225], for which the pIC50 is 9.10.

As to `Cc1nn(C)cc1-c1ccc(C[C@@H](C#N)NC(=O)[C@H]2N[C@@H]3CC[C@H]2C3)c(F)c1` [Example 160], the pIC50 is 8.77.

As for `CN1CCO[C@@H]2CCN(c3ccc(C[C@@H](C#N)NC(=O)[C@H]4N[C@@H]5CC[C@H]4C5)c(F)c3)C[C@@H]21` [Example 356], the negative-log IC50 (pIC50) was 7.70.
